Here are results for 43 molecules from patent US6620828B2, “Thiazole compounds and pharmaceutical compositions for inhibiting protein kinases and methods for their use” (Agouron Pharmaceuticals, Inc., priority 1999, dated 2003).

This assay deals with human umbilical vein endothelial cells (HUVEC). In words: HUVEC proliferation assay. The format is cell-based. To be noted: for inhibition at 0.001 µM / inhibition at 0.01 µM / inhibition at 0.15 µM / inhibition at 0.05 µM: Homo sapiens, HUVEC; for inhibition at 0.001 µM: 1 nM; for inhibition at 0.01 µM: 10 nM; for inhibition at 0.15 µM / % inhibition @ 150 nM: Table I screening results, 150 nM; for inhibition at 0.05 µM: 50 nM. The procedure:
HUVEC Proliferation Assay
This assay determines the ability of a test compound to inhibit the growth factor-stimulated proliferation of human umbilical vein endothelial cells (“HUVEC”). HUVEC cells (passage 3-4, Clonetics, Corp.) were thawed into EGM2 culture medium (Clonetics Corp) in T75 flasks. Fresh EGM2 medium was added to the flasks 24 hours later. Four or five days later, cells were exposed to another culture medium (F12K medium supplemented with 10% fetal bovine serum (FBS), 60 μg/ml endothelial cell growth supplement (ECGS), and 0.1 mg/ml heparin). Exponentially-growing HUVEC cells were used in experiments thereafter. Ten to twelve thousand HUVEC cells were plated in 96-well dishes in 100 μl of rich, culture medium (described above). The cells were allowed to attach for 24 hours in this medium. The medium was then removed by aspiration and 105 μl of starvation media (F12K+1% FBS) was added to each well. After 24 hours, 15 μl of test agent dissolved in 1% DMSO in starvation medium or this vehicle alone was added into each treatment well; the final DMSO concentration was 0.1%. One hour later, 30 μl of VEGF (30 ng/ml) in starvation media was added to all wells except those containing untreated controls; the final VEGF concentration was 6 ng/ml. Cellular proliferation was quantified 72 hours later by MTT dye reduction, at which time cells were exposed for 4 hours MTT (Promega Corp.). Dye reduction was stopped by addition of a stop solution (Promega Corp.) and absorbance at 595 λ was determined on a 96-well spectrophotometer plate reader.
IC50 values were calculated by curve-fitting the response of A^595 to various concentrations of the test agent; typically, seven concentrations separated by 0.5 log were employed, with triplicate wells at each concentration. For screening compound library plates, one or two concentrations (one well per concentration) were employed, and the % inhibition was calculated by the following formula:
% inhibition=(control−test) divided by (control−starvation) […]
control=A^595 when VEGF is present without test agent test=A^595 when VEGF is present with test agent starvation=A^595 when VEGF and test agent are both absent.

Setting [1] is: table following Table II (untitled), crude combinatorial library.
Setting [2] is: table following Table II (untitled), crude combinatorial library, read-out: % inhibition @ 10 nM.
[3] abbreviates: crude combinatorial amide library.
The mark [4] stands for this setting: Table II screening results, crude combinatorial amide library.
The mark [5] stands for this setting: Table II screening results, crude combinatorial amide library, read-out: % inhibition @ 10 nM.
Where [6] appears, read: crude combinatorial urea library, read-out: Inhibition of HUVEC Proliferation % inhibition @ 10 nM.
The mark [7] stands for this setting: crude combinatorial urea library, read-out: Inhibition of HUVEC Proliferation % inhibition @ 50 nM.
[8] abbreviates: Inhibition of HUVEC Proliferation, crude combinatorial urea library, read-out: Inhibition @ 50 nM.
Setting [9] is: Inhibition of HUVEC Proliferation, crude combinatorial urea library, read-out: % inhibition @ 50 nM.

The structures appear in SMILES notation. Like-named read-outs stand apart in the source and are kept apart here.

Regarding `COc1cc(Nc2nc(N)c(-c3nc(-c4cc(NC(=O)CCCN(C)C)ccc4C)no3)s2)cc(OC)c1OC`, the inhibition at 0.001 µM under setting [1] came out at 5%. Further, under setting [2], the inhibition at 0.01 µM was found to be 16%.
For `COc1cc(Nc2nc(N)c(-c3nc(-c4cccc(NC(=O)CCC5CCCCC5)c4)cs3)s2)cc(OC)c1OC`, under setting [3], the inhibition at 0.15 µM worked out at 8%.
As for `COc1cc(Nc2nc(N)c(-c3nc(-c4cc(NC(=O)C5CNC(=O)N5)ccc4C)no3)s2)cc(OC)c1OC` (stereo not drawn), the inhibition at 0.001 µM under setting [1] is -43%. Further, under setting [2], the inhibition at 0.01 µM was -7%.
Regarding `CNC(=O)Nc1nc(N)c(-c2nc(-c3cccc(NC(=O)Cc4cn(C)cn4)c3)cs2)s1`, the inhibition at 0.001 µM under setting [4] stood at 34%. Besides, under setting [5], the inhibition at 0.01 µM came to 42%.
For `COc1cccc(C(=O)Nc2cccc(-c3csc(-c4sc(NC(=O)NCC(C)N(C)C)nc4N)n3)c2)c1` (stereo not drawn), under setting [6], the inhibition at 0.01 µM was -22%. The inhibition at 0.05 µM under setting [7] was -3%.
Consider `COc1cc(Nc2nc(N)c(-c3nc(-c4cccc(NC(=O)/C=C/c5ccc(F)cc5)c4)cs3)s2)cc(OC)c1OC`, for which the “% inhibition @ 150 nM” value under setting [3] is 0%.
Turning to `CCCCN(CC)CCNC(=O)Nc1nc(N)c(-c2nc(-c3cc(NC(=O)c4cccc(OC)c4)c(F)cc3F)no2)s1`, the inhibition at 0.05 µM under setting [8] was 42%.
For the molecule `COCC(C)NC(=O)Nc1nc(N)c(-c2nc(-c3cccc(NC(=O)c4cccc(OC)c4)c3)cs2)s1` (stereo not drawn), under setting [6], the inhibition at 0.01 µM was determined as 8%. The inhibition at 0.05 µM under setting [7] came to 42%.
In the same order, the values of `COc1cccc(C(=O)Nc2cccc(-c3csc(-c4sc(NC(=O)NCC5CCCO5)nc4N)n3)c2)c1` (stereo not drawn) are 46% and 87%.
Regarding `CCC(C(=O)Nc1ccc(C)c(-c2noc(-c3sc(Nc4cc(OC)c(OC)c(OC)c4)nc3N)n2)c1)c1ccccc1C` (stereo not drawn), the inhibition at 0.001 µM under setting [1] is -14%. In addition, under setting [2], the inhibition at 0.01 µM amounted to 13%.
Consider `COc1cc(Nc2nc(N)c(-c3nc(-c4cccc(NC(=O)Cn5cnc6c5c(=O)n(C)c(=O)n6C)c4)cs3)s2)cc(OC)c1OC`, for which, under setting [3], the “% inhibition @ 150 nM” value stood at 0%.
On to `C#CCCCC(=O)Nc1cccc(-c2csc(-c3sc(Nc4cc(OC)c(OC)c(OC)c4)nc3N)n2)c1`, for which the inhibition at 0.15 µM under setting [3] is -14%.
As for `CNC(=O)Nc1nc(N)c(-c2nc(-c3cccc(NC(=O)[C@@H](O)C(C)C)c3)cs2)s1`, the inhibition at 0.001 µM under setting [4] was determined as 16%. The inhibition at 0.01 µM under setting [5] is 4%.
On to `COc1cc(Nc2nc(N)c(-c3nc(-c4cccc(NC(=O)/C=C/c5ccco5)c4)cs3)s2)cc(OC)c1OC`, for which, under setting [3], the “% inhibition @ 150 nM” value stood at 0%.
In the case of `COc1cccc(C(=O)Nc2cc(-c3csc(-c4sc(NC(=O)NCCN5CCCC5)nc4N)n3)c(F)cc2F)c1` [drawing 703], the inhibition at 0.05 µM under setting [9] was 93%.
Same read-out and setting: under `COc1cccc(C(=O)Nc2cc(-c3csc(-c4sc(NC(=O)NCC(=O)NO)nc4N)n3)c(F)cc2F)c1` stands 19%.
For `COc1cccc(C(=O)Nc2cc(-c3noc(-c4sc(NC(=O)NCCc5ccccn5)nc4N)n3)c(F)cc2F)c1`, under setting [8], the inhibition at 0.05 µM came to 78%.
As to `CNC(=O)Nc1nc(N)c(-c2nc(-c3cccc(NC(=O)Cc4c(F)cccc4F)c3)cs2)s1`, the inhibition at 0.001 µM under setting [4] is -3%. Further, the inhibition at 0.01 µM under setting [5] is -2%.
As to `COc1cccc(C(=O)Nc2cc(-c3noc(-c4sc(NC(=O)NC(CO)CO)nc4N)n3)c(F)cc2F)c1`, the inhibition at 0.05 µM under setting [8] turned out to be 31%.
Consider `CCC(O)CNC(=O)Nc1nc(N)c(-c2nc(-c3cccc(NC(=O)c4cccc(OC)c4)c3)cs2)s1` (stereo not drawn), for which the inhibition at 0.01 µM under setting [6] is 30%. Besides, under setting [7], the inhibition at 0.05 µM was found to be 135%.
Take `COc1cc(Nc2nc(N)c(-c3nc(-c4cccc(NC(=O)c5ccc(C)c(Br)c5)c4)cs3)s2)cc(OC)c1OC`: the inhibition at 0.15 µM under setting [3] was determined as 86%.
For the molecule `COc1cccc(C(=O)Nc2cccc(-c3csc(-c4sc(NC(=O)NCCC(C)C)nc4N)n3)c2)c1`, the inhibition at 0.01 µM under setting [6] came out at 25%. The inhibition at 0.05 µM under setting [7] turned out to be 18%.
The matching figures for `COc1cccc(C(=O)Nc2cccc(-c3csc(-c4sc(NC(=O)NCC(C)(C)CO)nc4N)n3)c2)c1`: 7% and 88%.
For `COc1cccc(C(=O)Nc2cccc(-c3csc(-c4sc(NC(=O)NCCN5CCOCC5)nc4N)n3)c2)c1`, under setting [6], the inhibition at 0.01 µM was 1%. For the same molecule, the inhibition at 0.05 µM under setting [7] came to 121%.
The matching figures for `CCC(CO)NC(=O)Nc1nc(N)c(-c2nc(-c3cccc(NC(=O)c4cccc(OC)c4)c3)cs2)s1` (stereo not drawn): 13% and 62%.
As to `COc1cccc(C(=O)Nc2cc(-c3csc(-c4sc(NC(=O)NC5CC(C)(C)NC(C)(C)C5)nc4N)n3)c(F)cc2F)c1`, the inhibition at 0.05 µM under setting [9] was 89%.
In the case of `COc1cccc(C(=O)Nc2cc(-c3csc(-c4sc(NC(=O)NCCO)nc4N)n3)c(F)cc2F)c1`, the inhibition at 0.05 µM under setting [9] stood at 110%.
As to `CCOC(=O)c1cc(C(=O)Nc2cccc(-c3csc(-c4sc(Nc5cc(OC)c(OC)c(OC)c5)nc4N)n3)c2)cc(C(=O)OCC)c1`, the inhibition at 0.15 µM under setting [3] was 6%.
Take `COc1cccc(C(=O)Nc2cc(-c3noc(-c4sc(NC(=O)NCCN5CCNCC5)nc4N)n3)c(F)cc2F)c1`: the inhibition at 0.05 µM under setting [8] was found to be 76%.
`COc1cc(Nc2nc(N)c(-c3nc(-c4cccc(NC(=O)Cc5cc(F)ccc5F)c4)cs3)s2)cc(OC)c1OC`: the inhibition at 0.15 µM under setting [3] came to 49%.
For `COc1cccc(C(=O)Nc2cccc(-c3csc(-c4sc(NC(=O)NCC(C)O)nc4N)n3)c2)c1` (stereo not drawn), the inhibition at 0.01 µM under setting [6] is 7%. Besides, the inhibition at 0.05 µM under setting [7] came out at 126%.
For `CNC(=O)Nc1nc(N)c(-c2nc(-c3cccc(NC(=O)C4(c5ccc(C)cc5)CC4)c3)cs2)s1`, the inhibition at 0.001 µM under setting [4] is -8%. Also, the inhibition at 0.01 µM under setting [5] was -6%.
`CCO/C(C)=C/C(=O)Nc1ccc(C)c(-c2noc(-c3sc(Nc4cc(OC)c(OC)c(OC)c4)nc3N)n2)c1`: the inhibition at 0.001 µM under setting [1] was determined as 21%. For the same molecule, the inhibition at 0.01 µM under setting [2] turned out to be 78%.
Regarding `COc1cc(Nc2nc(N)c(-c3nc(-c4cccc(NC(=O)CC(c5ccccc5)c5ccccc5)c4)cs3)s2)cc(OC)c1OC`, under setting [3], the inhibition at 0.15 µM is 10%.
In the case of `CNC(=O)Nc1nc(N)c(-c2nc(-c3cccc(NC(=O)c4cc(=O)cco4)c3)cs2)s1`, the inhibition at 0.001 µM under setting [4] turned out to be 47%. Further, the inhibition at 0.01 µM under setting [5] came to 27%.
Consider `CNC(=O)Nc1nc(N)c(-c2nc(-c3cccc(NC(=O)Cc4cc(F)cc(F)c4)c3)cs2)s1`, for which the inhibition at 0.001 µM under setting [4] is -5%. Moreover, under setting [5], the inhibition at 0.01 µM is -10%.
On to `COc1cccc(C(=O)Nc2cc(-c3csc(-c4sc(NC(=O)NCCN(C)C)nc4N)n3)c(F)cc2F)c1`, for which the inhibition at 0.05 µM under setting [9] turned out to be 63%.
With `COc1cccc(C(=O)Nc2cc(-c3noc(-c4sc(NC(=O)NCCN5CCOCC5)nc4N)n3)c(F)cc2F)c1` [drawing 788], under setting [8], the inhibition at 0.05 µM amounted to 106%.
As to `COc1cccc(C(=O)Nc2cc(-c3noc(-c4sc(NC(=O)NCCCN5CCOCC5)nc4N)n3)c(F)cc2F)c1`, the inhibition at 0.05 µM under setting [8] was 80%.
For `CNC(=O)Nc1nc(N)c(-c2nc(-c3cccc(NC(=O)C(O)CC(C)C)c3)cs2)s1` (stereo not drawn), under setting [4], the inhibition at 0.001 µM is -18%. Moreover, the inhibition at 0.01 µM under setting [5] is 2%.
For `COc1cc(Nc2nc(N)c(-c3nc(-c4cccc(NC(=O)/C=C/c5cccnc5)c4)cs3)s2)cc(OC)c1OC`, under setting [3], the inhibition at 0.15 µM was -13%.
With `COc1cccc(C(=O)Nc2cc(-c3csc(-c4sc(NC(=O)NCCCN5CCCCC5)nc4N)n3)c(F)cc2F)c1`, the inhibition at 0.05 µM under setting [9] was 89%.
Consider `COc1cccc(C(=O)Nc2cc(-c3noc(-c4sc(NC(=O)NCCN(C)C)nc4N)n3)c(F)cc2F)c1`, for which the inhibition at 0.05 µM under setting [8] is 69%.
